Measurements from US10287266B2, “Compounds and compositions for inhibiting the activity of SHP2” (NOVARTIS AG, priority 2015, dated 2019).

Target: T1, SHP2 (Homo sapiens, UniProt Q06124)
T1 sequence (Q06124 1-593): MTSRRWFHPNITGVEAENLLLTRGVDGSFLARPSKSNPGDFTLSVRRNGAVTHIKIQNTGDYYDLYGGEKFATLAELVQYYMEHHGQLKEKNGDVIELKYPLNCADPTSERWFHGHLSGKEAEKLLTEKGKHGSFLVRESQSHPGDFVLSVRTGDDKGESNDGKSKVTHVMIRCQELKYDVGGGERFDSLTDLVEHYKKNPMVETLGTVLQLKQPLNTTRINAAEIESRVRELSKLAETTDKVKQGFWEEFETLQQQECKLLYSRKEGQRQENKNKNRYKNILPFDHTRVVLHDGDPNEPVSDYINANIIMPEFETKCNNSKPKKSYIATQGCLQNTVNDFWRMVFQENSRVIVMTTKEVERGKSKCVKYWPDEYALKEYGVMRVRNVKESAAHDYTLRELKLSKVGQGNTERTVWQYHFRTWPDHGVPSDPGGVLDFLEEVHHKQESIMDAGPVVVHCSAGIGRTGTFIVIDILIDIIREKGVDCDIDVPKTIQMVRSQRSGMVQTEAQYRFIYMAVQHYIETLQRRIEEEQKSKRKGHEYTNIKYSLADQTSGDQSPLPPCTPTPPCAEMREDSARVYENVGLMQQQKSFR
Experiment: SHP2 Allosteric Inhibition Assay
Format: biochemical
Settings: 0.5 nM SHP2 activated with 0.5 μM peptide IRS1_pY1172(dPEG8)pY1222; surrogate substrate DiFMUP, prompt fluorescence, 25° C.
Excerpt: SHP2 Allosteric Inhibition Assay
SHP2 is allosterically activated through binding of bis-tyrosyl-phorphorylated peptides to its Src Homology 2 (SH2) domains. The latter activation step leads to the release of the auto-inhibitory interface of SHP2, which in turn renders the SHP2 protein tyrosine phosphatase (PTP) active and available for substrate recognition and reaction catalysis. The catalytic activity of SHP2 was monitored using the surrogate substrate DiFMUP in a prompt fluorescence assay format.
After 30-60 minutes incubation at 25° C., the surrogate substrate DiFMUP (Invitrogen, cat# D6567) was added to the reaction and incubated at 25° C. for 30 minutes. […] The inhibitor dose response curves were analyzed using normalized IC50 regression curve fitting with control based normalization.

| Structure (SMILES) | AC50 |
| --- | --- |
| N#Cc1c(Sc2cnc(N3CCC4(CCC[C@H]4N)CC3)cn2)ccnc1Cl [Example 5, (R)-4-((5-(1-amino-8-azaspiro[4.5]decan-8-yl)pyrazin-2-yl)thio)-2-chloronicotinonitrile] | 67 nM |
| N[C@@H]1CCCC12CCN(c1cnc(Sc3ccccc3)cn1)CC2 [Example 72] | 64.6 nM |
| CCc1ccccc1Sc1cnc(N2CCC3(CCC[C@@H]3N)CC2)cn1 [Example 125] | 101 nM |
| N[C@@H]1CCCC12CCN(c1cnc(Sc3cnnc(O)c3Cl)cn1)CC2 [Example 7, (R)-5-((5-(1-amino-8-azaspiro[4.5]decan-8-yl)pyrazin-2-yl)thio)-4-chloropyridazin-3-ol] | 213 nM |
| N[C@@H]1CCCC12CCN(c1cnc(Sc3cccc(CO)c3)cn1)CC2 [Example 81] | 54.8 nM |
| C[C@H]1OCC2(CCN(c3cnc(Sc4ccnc(N)c4Cl)cn3)CC2)[C@H]1N [Example 58] | 454 nM |
| CC1(CN)CCN(c2cnc(Sc3cccnc3C(F)(F)F)cn2)CC1 [Example 46] | 47.6 nM |
| Nc1cccc(Sc2cnc(N3CCC4(CCC[C@H]4N)CC3)cn2)c1 [Example 79] | 31.4 nM |
| NCC1(c2ccccn2)CCN(c2cnc(Sc3ccnc(N)c3Cl)cn2)CC1 [Example 45] | 47.1 nM |
| N[C@@H]1CCCC12CCN(c1cnc(Sc3ccncc3F)cn1)CC2 [Example 95] | 159 nM |
| CC1(O)C[C@@H](N)C2(CCN(c3cnc(Sc4ccnc(N)c4Cl)cn3)CC2)C1 (stereo partly drawn) [Example 26] | 11.5 nM |
| CCc1cccc(Sc2cnc(N3CCC4(CCC[C@H]4N)CC3)cn2)c1 [Example 129] | 526 nM |
| C[C@@H]1C[C@@H](N)C2(CCN(c3cnc(Sc4ccnc(N)c4Cl)cn3)CC2)C1 [Example 30] | 17 nM |
| Nc1nccc(Sc2cnc(N3CCC4(CC3)C[C@H](O)[C@@H](O)[C@H]4N)cn2)c1Cl [Example 57] | 43.8 nM |
| CC(C)C1(CN)CCN(c2cnc(Sc3ccnc(N)c3Cl)cn2)CC1 [Example 32] | 17.8 nM |
| N[C@@H]1[C@H](O)[C@@H](O)CC12CCN(c1cnc(Sc3ccnc(Cl)c3Cl)cn1)CC2 [Example 55] | 5.1 nM |
| N[C@@H]1CCCC12CCN(c1cnc(Sc3ccnc(F)c3Cl)cn1)CC2 [Example 99] | 43.9 nM |
| CC1(CN)CCN(c2cnc(Sc3ccnc(N)c3Cl)cn2)CC1O (single isomer, unassigned) [Example 39] | 28.2 nM |
| C[C@@H]1OCC2(CCN(c3cnc(Sc4ccnc(N)c4Cl)cn3)CC2)[C@@H]1N [Example 115] | 24.7 nM |
| C[C@H]1OCC2(CCN(c3cnc(Sc4ccnc(N)c4Cl)cn3)CC2)[C@@H]1N [Example 12] | 5.7 nM |
| N[C@@H]1CCCC12CCN(c1cnc(Sc3c(F)c(F)cc(F)c3F)cn1)CC2 [Example 101] | 2510 nM |
| N[C@@H]1CCCC12CCN(c1cnc(Sc3ccccc3Cl)cn1)CC2 [Example 73] | 17.3 nM |
| CCc1ccc(Sc2cnc(N3CCC4(CCC[C@@H]4N)CC3)cn2)cc1 [Example 128] | 287 nM |

| Structure (SMILES) | AC50 |
| --- | --- |
| N[C@@H]1CCCC12CCN(c1cnc(Sc3ccc(F)cc3F)cn1)CC2 [Example 100] | 151 nM |
| N[C@@H]1CCCC12CCN(c1cnc(Sc3cccc(F)c3Cl)cn1)CC2 [Example 92] | 5.77 nM |
| N[C@@H]1CCCC12CCN(c1cnc(Sc3cccnc3)cn1)CC2 [Example 106] | 11300 nM |
| N[C@@H]1CCCC12CCN(c1cnc(Sc3cccc(O)c3)cn1)CC2 [Example 78] | 31.8 nM |
| N[C@@H]1CCCC12CCN(c1cnc(Sc3ccccc3F)cn1)CC2 [Example 70] | 30.4 nM |
| N[C@@H]1COCC12CCN(c1cnc(Sc3ccncc3Cl)cn1)CC2 [Example 23] | 10.4 nM |
| C[C@@H]1OCC2(CCN(c3cnc(Sc4ccnc(C(F)(F)F)c4)cn3)CC2)[C@@H]1N [Example 122] | 18.5 nM |
| Nc1nccc(Sc2cnc(N3CCC4(CCCCN4)CC3)cn2)c1Cl [Example 8, 4-((5-(1,9-diazaspiro[5.5]undecan-9-yl)pyrazin-2-yl)thio)-3-chloropyridin-2-amine] | 434 nM |
| CO[C@@H]1C[C@@H](N)C2(CCN(c3cnc(Sc4ccnc(N)c4Cl)cn3)CC2)C1 [Example 43] | 42.6 nM |
| Cc1cccc(Sc2cnc(N3CCC4(CCC[C@@H]4N)CC3)cn2)c1 [Example 123] | 75.8 nM |
| CC1(CN)CCN(c2cnc(Sc3ccnc(N)c3Cl)cn2)CC1O (single isomer, unassigned) [Example 40] | 108 nM |
| CC1(CN)CCN(c2cnc(Sc3cccc(N)c3Cl)cn2)CC1 [Example 22] | 10 nM |
| C[C@@H]1OCC2(CCN(c3cnc(Sc4ccncc4F)cn3)CC2)[C@@H]1N [Example 113] | 34.8 nM |
| C[C@@H]1OCC2(CCN(c3cnc(Sc4cc[nH]c(=O)c4Cl)cn3)CC2)[C@@H]1N [Example 109] | 28.8 nM |
| Cc1c(Sc2cnc(N3CCC4(CCC[C@H]4N)CC3)cn2)cccc1C(F)(F)F [Example 98] | 293 nM |
| C[C@@H]1OCC2(CCN(c3cnc(Sc4ccnc(F)c4)cn3)CC2)[C@@H]1N [Example 114] | 120 nM |
| NCC1(CO)CCN(c2cnc(Sc3ccnc(N)c3Cl)cn2)CC1 [Example 50] | 70.5 nM |
| N[C@@H]1COCC12CCN(c1cnc(Sc3ccnc(Cl)c3Cl)cn1)CC2 [Example 19] | 8.5 nM |
| Nc1nccc(Sc2cnc(N3CCC4(CC3)C[C@@H](F)C[C@H]4N)cn2)c1Cl [Example 27] | 12.1 nM |
| CC1(N)CCN(c2cnc(Sc3cccc(N)c3Cl)cn2)CC1 [Example 36] | 23.6 nM |
| C[C@@H]1OCC2(CCN(c3cnc(Sc4cccc(CO)c4)cn3)CC2)[C@@H]1N [Example 117] | 45.1 nM |
| CC1CCC2(CCN(c3cnc(Sc4ccnc(N)c4Cl)cn3)CC2)[C@@H]1N (stereo partly drawn) [Example 38] | 24.7 nM |
| N[C@H]1CCCC12CCN(c1cnc(Sc3ccccc3OC(F)(F)F)cn1)CC2 [Example 126] | 130 nM |

| Structure (SMILES) | AC50 |
| --- | --- |
| CCOc1cccc(Sc2cnc(N3CCC4(CCC[C@H]4N)CC3)cn2)c1 [Example 83] | 78.1 nM |
| CC(C)(C)c1ccccc1Sc1cnc(N2CCC3(CCC[C@H]3N)CC2)cn1 [Example 66] | 1460 nM |
| CC(C)(C)c1ccc(Sc2cnc(N3CCC4(CCC[C@@H]4N)CC3)cn2)cc1 [Example 132] | 1960 nM |
| C[C@@H]1OCC2(CCN(c3cnc(Sc4ccnc(F)c4Cl)cn3)CC2)[C@@H]1N [Example 111] | 44.1 nM |
| Nc1cc(Sc2cnc(N3CCC4(CCC[C@H]4N)CC3)cn2)c(Cl)c(Cl)n1 [Example 33] | 19.3 nM |
| C[C@@H]1OCC2(CCN(c3cnc(Sc4ccnc(N)c4Cl)cn3)CC2)[C@@H]1N [Example 3, (3S,4S)-8-(5-((2-amino-3-chloropyridin-4-yl)thio)pyrazin-2-yl)-3-methyl-2-oxa-8-azaspiro[4.5]decan-4-amine] | 7.9 nM |
| Nc1nccc(Sc2cnc(N3CCC4(CCC(CO)[C@H]4N)CC3)cn2)c1Cl (stereo partly drawn) [Example 133] | 14.6 nM |
| N[C@@H]1CCCC12CCN(c1cnc(Sc3cccc(S(F)(F)(F)(F)F)c3)cn1)CC2 [Example 102] | 436 nM |
| CC(C)CC1(CN)CCN(c2cnc(Sc3ccnc(N)c3Cl)cn2)CC1 [Example 29] | 15.5 nM |
| N[C@@H]1COCC12CCN(c1cnc(Sc3ccnc(F)c3Cl)cn1)CC2 [Example 34] | 19.6 nM |
| CC(C)(C)c1ccccc1Sc1cnc(N2CCC3(CCC[C@@H]3N)CC2)cn1 [Example 131] | 1460 nM |
| CC1CCC2(CCN(c3cnc(Sc4ccnc(N)c4Cl)cn3)CC2)[C@@H]1N (stereo partly drawn) [Example 13] | 5.9 nM |
| N[C@@H]1CCCC12CCN(c1cnc(Sc3cccc(F)c3F)cn1)CC2 [Example 75] | 97.7 nM |
| N[C@@H]1CCCC12CCN(c1cnc(Sc3ccnc4c3CCC4)cn1)CC2 [Example 97] | 29.3 nM |
| N[C@@H]1CCCC12CCN(c1cnc(Sc3cccc(Cl)c3Cl)cn1)CC2 [Example 107] | 74 nM |
| N[C@@H]1CCCC12CCN(c1cnc(Sc3ccccc3C(F)(F)F)cn1)CC2 [Example 67] | 920 nM |
| N[C@H]1CCCC12CCN(c1cnc(Sc3ccccc3)cn1)CC2 [Example 130] | 621 nM |
| N[C@@H]1CCCC12CCN(c1cnc(Sc3ccccc3OC(F)(F)F)cn1)CC2 [Example 65] | 30.5 nM |
| C[C@@H]1OCC2(CCN(c3cnc(Sc4cc(N)nc(Cl)c4Cl)cn3)CC2)[C@@H]1N [Example 28] | 14.1 nM |
| Nc1cc(Sc2cnc(N3CCC4(CCC[C@H]4N)CC3)cn2)c(Cl)c(N)n1 [Example 37] | 24 nM |
| N[C@@H]1CCCC12CCN(c1cnc(Sc3cc[nH]c(=O)c3Cl)cn1)CC2 [Example 105] | 78.9 nM |
| C[C@@H]1OCC2(CCN(c3cnc(Sc4ccccc4)cn3)CC2)[C@@H]1N [Example 108] | 52 nM |
| N[C@@H]1CCCC12CCN(c1cnc(Sc3cccnc3C(F)(F)F)cn1)CC2 [Example 35] | 20.8 nM |
